According to patent US8602544B2, “Ink set, ink cartridge, ink jet recording method, and ink jet recording apparatus” (Canon Kabushiki Kaisha, priority 2009, dated 2013):

Assay: Determination of poor medium/good medium (solubility of the dye in a water-soluble organic solvent)
Type: physicochemical
Method: It is determined by the solubility of the dye whether a certain water-soluble organic solvent is a good medium or a poor medium with respect to a dye to be used together. In other words, the good medium and the poor medium are indexes which indicate the relationship between the water-soluble organic solvent and the dye from the viewpoint of the solubility.
More specifically, it can be determined in the following way whether a certain water-soluble organic solvent is a good medium or a poor medium with respect to a dye being an object to be determined. The water-soluble organic solvent of an object to be determined and a sufficient amount of a dye are placed into a sample bottle having a capacity of approximately 20 cc, and the liquid is stirred overnight. […] Because the supernatant liquid after the centrifugal separation is a saturated solution of the dye, the solubility of the dye can be determined by measuring the absorbance of the liquid, and calculating the ratio of the measured absorbance to the absorbance of an aqueous solution of the dye with a known concentration.
In order to evaluate the reliability of the ink, it was determined what type of relationship there was between a dye and a water-soluble organic solvent which were contained in an ink. A water-soluble organic solvent being an object to be determined (when the water-soluble organic compound is solid, it was a 20% aqueous solution of the solid) and a sufficient amount of the dye were placed into a sample bottle having a capacity of 20 cc, and the liquid was stirred overnight. […] Then, the solubility of the dye with respect to the water-soluble organic solvent being the object to be determined (or 20% aqueous solution) was determined from the ratio of the measured absorbance to the previously measured absorbance of an aqueous solution having a predetermined concentration of the dye. From the obtained solubility, a water-soluble organic solvent having a solubility of 5% or less was determined to be a poor medium, and a water-soluble organic solvent having a solubility of more than 5% was determined to be a good medium.

[1] = 1-(2-hydroxyethyl)-2-pyrrolidinone
[2] = Triethylene glycol monobutyl ether

| SMILES | Determination results for poor medium/good medium (solubility of the dye) (1,2-hexandiol) | Determination results for poor medium/good medium (solubility of the dye) (1,5-pentanediol) | Determination results for poor medium/good medium (solubility of the dye) [1] | Determination results for poor medium/good medium (solubility of the dye) (2-methyl-1,3-propanediol) | Determination results for poor medium/good medium (solubility of the dye) (Diethylene glycol) | Determination results for poor medium/good medium (solubility of the dye) (Ethylene glycol) | Determination results for poor medium/good medium (solubility of the dye) (Glycerin) | Determination results for poor medium/good medium (solubility of the dye) (Propylene glycol) | Determination results for poor medium/good medium (solubility of the dye) (Triethylene glycol) | Determination results for poor medium/good medium (solubility of the dye) [2] |
| --- | --- | --- | --- | --- | --- | --- | --- | --- | --- | --- |
| Cn1c(=O)c(C(=O)c2cccc(S(=O)(=O)O)c2)c2c3c(c(Nc4cc(Nc5nc(NCCNc6nc(Nc7cc(Nc8ccc9c%10c8C(=O)c8ccccc8-c%10c(C(=O)c8cccc(S(=O)(=O)O)c8)c(=O)n9C)c(S(=O)(=O)O)cc7S(=O)(=O)O)nc(Oc7ccc(S(=O)(=O)O)cc7)n6)nc(Oc6ccc(S(=O)(=O)O)cc6)n5)c(S(=O)(=O)O)cc4S(=O)(=O)O)ccc31)C(=O)c1ccccc1-2 [Exemplified compound M1] | poor (a water-soluble organic solvent having a solubility of 5% or less was determined to be a poor medium) | poor (a water-soluble organic solvent having a solubility of 5% or less was determined to be a poor medium) | good (a water-soluble organic solvent having a solubility of more than 5% was determined to be a good medium) | poor (a water-soluble organic solvent having a solubility of 5% or less was determined to be a poor medium) | good (a water-soluble organic solvent having a solubility of more than 5% was determined to be a good medium) | good (a water-soluble organic solvent having a solubility of more than 5% was determined to be a good medium) | good (a water-soluble organic solvent having a solubility of more than 5% was determined to be a good medium) | good (a water-soluble organic solvent having a solubility of more than 5% was determined to be a good medium) | good (a water-soluble organic solvent having a solubility of more than 5% was determined to be a good medium) | good (a water-soluble organic solvent having a solubility of more than 5% was determined to be a good medium) |
| CCc1cc(C)c(S(=O)(=O)O)c(CC)c1Nc1nc(N(c2nc3ccc(S(=O)(=O)O)cc3s2)c2c(CC)cc(C)c(S(=O)(=O)O)c2CC)cc(C)c1N=Nc1c(C#N)c(C(C)(C)C)nn1-c1nc2ccc(S(=O)(=O)O)cc2s1 [Exemplified compound M2] | good (a water-soluble organic solvent having a solubility of more than 5% was determined to be a good medium) | good (a water-soluble organic solvent having a solubility of more than 5% was determined to be a good medium) | good (a water-soluble organic solvent having a solubility of more than 5% was determined to be a good medium) | good (a water-soluble organic solvent having a solubility of more than 5% was determined to be a good medium) | good (a water-soluble organic solvent having a solubility of more than 5% was determined to be a good medium) | good (a water-soluble organic solvent having a solubility of more than 5% was determined to be a good medium) | good (a water-soluble organic solvent having a solubility of more than 5% was determined to be a good medium) | good (a water-soluble organic solvent having a solubility of more than 5% was determined to be a good medium) | good (a water-soluble organic solvent having a solubility of more than 5% was determined to be a good medium) | good (a water-soluble organic solvent having a solubility of more than 5% was determined to be a good medium) |
